Data from US20240261250A1 (priority 2020, published 2024).

Columns and labels:
[1] = test system: SH-SY5Y cells; assay type: cell-based
[2] = test system: SH-SY5Y cells; assay type: cell-based; remark: listed apart in the source
[3] = test system: SH-SY5Y cells
[4] = test system: SH-SY5Y cells; assay type: cell-based; remark: listed apart in the source

`O[C@H]1[C@H](O)[C@@H](O)[C@@H]2O[C@@H]2[C@@H]1O` (racemic) [CBE, Conduritol B Epoxide] was tested, and the “immunofluorescence intensity of Lyso-tracker” value [1] was “increased significantly”, the “number of Lyso-tracker labeled positive cells” value [1] was “significantly increased” and the “concentration of GlcCer of various side chains in cells” value [2] was “much higher”. For the same molecule, the cell viability [3] was “significantly inhibited”.
With `CCN(CC)CCO[C@H]1CC[C@@]2(C)C(=CC[C@@H]3[C@@H]2CC[C@]2(C)C(=O)CC[C@@H]32)C1` [U18666A] the “Filipin staining fluorescence intensity” value [4] was “enhanced”.
For `CO/C1=C\C(C)=C\[C@@H](C)[C@@H](O)[C@@H](C)C/C(C)=C/C=C/[C@H](OC)[C@@H]([C@@H](C)[C@@H](O)[C@H](C)[C@@]2(O)C[C@@H](O)[C@H](C)[C@@H](C(C)C)O2)OC1=O` [Baf-A1, Bafilomycin A1], the cell viability [3] was “not significantly different” and the “effect on the protection by PAO (cell viability)” value [3] was “decreased the protection effect of PAO”.
With `COc1ncc(-c2ccc3nc(N)n(-c4ccc(N5CCOCC5)cc4)c3c2)cc1S(=O)(=O)Nc1ccccc1F` [A1, 5-(2-amino-1-(4-(4-morpholinyl)phenyl)-1H-benzimidazol-6-yl)-N-(2-fluorophenyl)-2-methoxy-3-pyridinesulfonamide] the “Lyso-tracker labeled positive cells” value [1] was “fewer Lyso-tracker labeled positive cells”.
